In patent US20210395239A1 (Hoffmann-La Roche Inc., priority 2018, published 2021):

target: T1, human TLR7 (Homo sapiens, UniProt Q9NYK1); assay: HEK293-Blue-hTLR-7 cells assay (SEAP reporter, R848 stimulation); format: cell-based; conditions: HEK293-Blue-hTLR7 cells, R848, 20 hrs; read-out: HEK/hTLR7 IC50
T1 construct: host or cells: HEK293 (HEK-Blue hTLR7)
T1 sequence (Q9NYK1 27-1049): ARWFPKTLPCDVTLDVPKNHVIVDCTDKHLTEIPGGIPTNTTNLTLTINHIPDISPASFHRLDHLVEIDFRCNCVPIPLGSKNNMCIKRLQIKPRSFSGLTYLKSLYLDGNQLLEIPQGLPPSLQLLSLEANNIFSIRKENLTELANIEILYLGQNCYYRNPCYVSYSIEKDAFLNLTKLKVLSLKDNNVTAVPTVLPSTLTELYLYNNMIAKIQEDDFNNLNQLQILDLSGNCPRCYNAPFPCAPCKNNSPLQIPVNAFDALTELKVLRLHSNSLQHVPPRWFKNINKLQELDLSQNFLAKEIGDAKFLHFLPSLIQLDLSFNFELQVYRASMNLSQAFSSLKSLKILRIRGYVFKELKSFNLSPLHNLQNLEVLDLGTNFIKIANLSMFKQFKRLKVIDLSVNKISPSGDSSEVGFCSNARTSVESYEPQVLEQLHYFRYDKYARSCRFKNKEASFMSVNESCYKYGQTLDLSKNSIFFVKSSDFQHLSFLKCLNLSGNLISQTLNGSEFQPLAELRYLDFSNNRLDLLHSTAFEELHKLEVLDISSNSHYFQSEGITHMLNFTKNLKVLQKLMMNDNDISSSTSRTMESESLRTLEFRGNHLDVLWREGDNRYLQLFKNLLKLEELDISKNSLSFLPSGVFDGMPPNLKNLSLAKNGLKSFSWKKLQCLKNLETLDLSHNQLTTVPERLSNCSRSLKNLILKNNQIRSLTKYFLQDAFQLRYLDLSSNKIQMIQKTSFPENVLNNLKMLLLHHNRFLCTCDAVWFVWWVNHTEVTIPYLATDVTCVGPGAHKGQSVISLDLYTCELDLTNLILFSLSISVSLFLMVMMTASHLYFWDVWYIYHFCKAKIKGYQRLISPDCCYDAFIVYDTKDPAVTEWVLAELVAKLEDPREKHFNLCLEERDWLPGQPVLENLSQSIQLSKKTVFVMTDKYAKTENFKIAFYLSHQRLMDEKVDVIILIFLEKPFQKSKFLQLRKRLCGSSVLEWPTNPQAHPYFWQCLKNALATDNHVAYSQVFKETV
Outline: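 HEK293-Blue-hTLR7 cells (NF-κB/AP-1-driven SEAP reporter) were stimulated with R848 alongside serially diluted compound at 1% final DMSO for 20 h at 37 °C. Supernatant SEAP was then developed with QUANTI-Blue for 2 h at 37 °C and absorbance read at 620–655 nm; antagonism is measured as reduced reporter signal.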

Row | SMILES | IC50 [nM]
1 | C[C@@H]1CN(c2ccc(C#N)n3ncc(F)c23)C[C@H](CN2CCN(c3ccc(N4C[C@H]5NCCO[C@@H]5C4)nc3)CC2)O1 [Example 168, 4-[(2S,6R)-2-[[4-[6-[(4aR,7aR)-3,4,4a,5,7,7a-hexahydro-2H-pyrrolo[3,4-b][1,4]oxazin-6-yl]-3-pyridyl]piperazin-1-yl]methyl]-6-methyl-morpholin-4-yl]-3-fluoro-pyrazolo[1,5-a]pyridine-7-carbonitrile] | 20
2 | C[C@@H]1CN(c2ccc(C#N)c3ncccc23)C[C@H](CN2CCN(c3ccc(N4CCNCC4)cn3)CC2)O1 [Example 8, 5-[(2R,6S)-2-methyl-6-[[4-(5-piperazin-1-yl-2-pyridyl)piperazin-1-yl]methyl]morpholin-4-yl]quinoline-8-carbonitrile] | 50
3 | C[C@@H]1CN(c2ccc(C#N)n3ncc(F)c23)C[C@H](CN2CCN(c3ccc(N4CC5(CCN5)C4)nc3)CC2)O1 [Example 179, 4-[(2S,6R)-2-[[4-[6-(1,6-diazaspiro[3.3]heptan-6-yl)-3-pyridyl]piperazin-1-yl]methyl]-6-methyl-morpholin-4-yl]-3-fluoro-pyrazolo[1,5-a]pyridine-7-carbonitrile] | 30
4 | C[C@@H]1CN(c2ccc(C#N)c3ncccc23)C[C@H](CN2CCN(c3ccnc(NC4CNC4)n3)CC2)O1 [Example 28, 5-[(2S,6R)-2-[[4-[2-(azetidin-3-ylamino)pyrimidin-4-yl]piperazin-1-yl]methyl]-6-methyl-morpholin-4-yl]quinoline-8-carbonitrile] | 11
5 | Cc1cc(N2CCN(C[C@H]3CN(c4ccc(C#N)c5ncccc45)C[C@@H](C)O3)CC2)nc(N2C[C@@H](N)[C@@H](F)C2)n1 [Example 55, 5-[(2S,6R)-2-[[4-[2-[(3R,4S)-3-amino-4-fluoro-pyrrolidin-1-yl]-6-methyl-pyrimidin-4-yl]piperazin-1-yl]methyl]-6-methyl-morpholin-4-yl]quinoline-8-carbonitrile] | 14
6 | C[C@@H]1CN(c2cc(=O)n(C)c3ncccc23)C[C@H](CN2CC(c3ccc(N4CC(C)(N)C4)cc3)C2)O1 [Example 176, 4-[(2S,6R)-2-[[3-[4-(3-amino-3-methyl-azetidin-1-yl)phenyl]azetidin-1-yl]methyl]-6-methyl-morpholin-4-yl]-1-methyl-1,8-naphthyridin-2-one] | 36
7 | C[C@@H]1CN(c2ccc(C#N)c3ncccc23)C[C@H](CN2CCC(C#N)(c3ccc(N4CCNCC4)cc3)CC2)O1 [Example 11, 5-[(2S,6R)-2-[[4-cyano-4-(4-piperazin-1-ylphenyl)-1-piperidyl]methyl]-6-methyl-morpholin-4-yl]quinoline-8-carbonitrile] | 23
8 | C[C@@H]1CN(c2ccc(C#N)n3ncc(F)c23)C[C@H](CN2CCN(c3ccc(N4CCOC5(CNC5)C4)nc3)CC2)O1 [Example 178, 3-fluoro-4-[(2R,6S)-2-methyl-6-[[4-[6-(5-oxa-2,8-diazaspiro[3.5]nonan-8-yl)-3-pyridyl]piperazin-1-yl]methyl]morpholin-4-yl]pyrazolo[1,5-a]pyridine-7-carbonitrile] | 38
9 | C[C@@H]1CN(c2ccc(C#N)n3ncc(F)c23)C[C@H](CN2CCN(c3ccc(C[C@@H]4CNCCO4)cc3)CC2)O1 [Example 186, 3-fluoro-4-[(2R,6S)-2-methyl-6-[[4-[4-[[(2R)-morpholin-2-yl]methyl]phenyl]piperazin-1-yl]methyl]morpholin-4-yl]pyrazolo[1,5-a]pyridine-7-carbonitrile] | 18
10 | C[C@@H]1CN(c2cc(=O)n(C)c3ncccc23)C[C@H](CN2CC(c3ccc(N4CC(F)[C@H](N)C4)cc3)C2)O1 (stereo in doubt) [Example 174, 4-[(2S,6R)-2-[[3-[4-[(3R,4R)-3-amino-4-fluoro-pyrrolidin-1-yl]phenyl]azetidin-1-yl]methyl]-6-methyl-morpholin-4-yl]-1-methyl-1,8-naphthyridin-2-one] | 47
